Experimental data taken from US20240368150A1 (Hoffmann-La Roche Inc., priority 2021, published 2024).
Where two headings read alike, the source gives them in different places.

Tests used:
[1] = biological target: hDGKalpha(1-735)-N-His (Homo sapiens (Human), UniProt P23743); experiment: DGKalpha ADP Glo assay (in vitro DGK inhibition); format: biochemical; details: DLG 125 uM, ATP 25 μM, DGK α 4 nM, 1 hour reaction
Outline: (§1)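 His-tagged human DGKα (4 nM) and DGKζ (2 nM) phosphorylate DLG presented in DLG/PS/PC liposomes using ATP; reaction run 1 hour. ADP formed measured by ADP-Glo luminescence. Compounds tested as 11-point 1:3 dose response […], 2% DMSO final.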

[2] = biological target: hDGKzeta(1-928)-N-His (Homo sapiens (Human), UniProt Q13574); experiment: DGKzeta ADP Glo assay (in vitro DGK inhibition); format: biochemical; details: DLG 125 uM, ATP 50 μM, DGK ζ 2 nM, 1 hour reaction
Outline: as §1

[3] = tested on: primary human T-cells; experiment: Proliferation assay after 5 days (CellTiter-Glo, CD3 stimulation; PBS counter screen); format: cell-based; details: CD3 stimulation; for Emax: read-out: Emax proliferation (% activation); for EC50: primary human T-cells, CellTiter-Glo after 5 days, EC50 of fitted sigmoidal curve, read-out: Tcell Proliferation CD3 EC50
Outline: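 Primary human T-cells, with or without CD3 stimulation, exposed to compounds for 5 days; cell number read as ATP by CellTiter-Glo 2.0 luminescence after 45 min equilibration and 15 min reagent incubation at room temperature. Compounds activating unstimulated cells or reducing viability were flagged.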

[4] = tested on: MV-3 cells; experiment: T-cell - TCB - MV3 killing assay (MCSP-TCB, RFP object count by Incucyte); format: cell-based, human; details: Homo sapiens, MV-3, 120 h, 5 d; for Emax: normalized: MCSP-TCB only = neutral control, 20 μM reference compound A1 = 100%, read-out: MSCP TCB killing MV-3 cells 5 d Emax; for EC50: primary human T-cells + MCSP-TCB, MV-3 RFP cells, read-out: MSCP TCB killing MV-3 cells 5 d EC50
[5] = tested on: primary human T-cells
[6] = Homo sapiens, T-cell, 120 h, 5 days, normalized to reference compound A1 as stimulator control = 100%, DMSO neutral control

hDGKalpha(1-735)-N-His, sequence (P23743 whole entry): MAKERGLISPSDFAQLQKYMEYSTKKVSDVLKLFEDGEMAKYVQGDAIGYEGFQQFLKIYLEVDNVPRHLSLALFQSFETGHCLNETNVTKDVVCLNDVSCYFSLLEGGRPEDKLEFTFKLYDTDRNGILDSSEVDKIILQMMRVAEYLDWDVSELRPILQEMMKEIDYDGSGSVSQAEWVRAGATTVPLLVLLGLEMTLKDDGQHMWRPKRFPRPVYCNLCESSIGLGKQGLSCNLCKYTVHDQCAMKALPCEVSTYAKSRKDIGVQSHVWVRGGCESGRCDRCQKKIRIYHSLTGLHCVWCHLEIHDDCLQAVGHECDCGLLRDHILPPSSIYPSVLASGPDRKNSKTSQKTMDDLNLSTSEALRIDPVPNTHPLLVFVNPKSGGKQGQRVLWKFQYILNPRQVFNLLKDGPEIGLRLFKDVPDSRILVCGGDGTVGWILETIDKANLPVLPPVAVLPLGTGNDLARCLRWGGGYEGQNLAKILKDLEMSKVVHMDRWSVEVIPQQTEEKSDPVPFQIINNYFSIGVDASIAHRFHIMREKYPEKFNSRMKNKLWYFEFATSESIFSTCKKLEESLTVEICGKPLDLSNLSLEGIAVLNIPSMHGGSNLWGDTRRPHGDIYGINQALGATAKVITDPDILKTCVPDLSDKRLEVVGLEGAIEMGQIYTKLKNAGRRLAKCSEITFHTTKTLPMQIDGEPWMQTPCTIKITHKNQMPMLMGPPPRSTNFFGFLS
hDGKzeta(1-928)-N-His, sequence (Q13574 whole entry): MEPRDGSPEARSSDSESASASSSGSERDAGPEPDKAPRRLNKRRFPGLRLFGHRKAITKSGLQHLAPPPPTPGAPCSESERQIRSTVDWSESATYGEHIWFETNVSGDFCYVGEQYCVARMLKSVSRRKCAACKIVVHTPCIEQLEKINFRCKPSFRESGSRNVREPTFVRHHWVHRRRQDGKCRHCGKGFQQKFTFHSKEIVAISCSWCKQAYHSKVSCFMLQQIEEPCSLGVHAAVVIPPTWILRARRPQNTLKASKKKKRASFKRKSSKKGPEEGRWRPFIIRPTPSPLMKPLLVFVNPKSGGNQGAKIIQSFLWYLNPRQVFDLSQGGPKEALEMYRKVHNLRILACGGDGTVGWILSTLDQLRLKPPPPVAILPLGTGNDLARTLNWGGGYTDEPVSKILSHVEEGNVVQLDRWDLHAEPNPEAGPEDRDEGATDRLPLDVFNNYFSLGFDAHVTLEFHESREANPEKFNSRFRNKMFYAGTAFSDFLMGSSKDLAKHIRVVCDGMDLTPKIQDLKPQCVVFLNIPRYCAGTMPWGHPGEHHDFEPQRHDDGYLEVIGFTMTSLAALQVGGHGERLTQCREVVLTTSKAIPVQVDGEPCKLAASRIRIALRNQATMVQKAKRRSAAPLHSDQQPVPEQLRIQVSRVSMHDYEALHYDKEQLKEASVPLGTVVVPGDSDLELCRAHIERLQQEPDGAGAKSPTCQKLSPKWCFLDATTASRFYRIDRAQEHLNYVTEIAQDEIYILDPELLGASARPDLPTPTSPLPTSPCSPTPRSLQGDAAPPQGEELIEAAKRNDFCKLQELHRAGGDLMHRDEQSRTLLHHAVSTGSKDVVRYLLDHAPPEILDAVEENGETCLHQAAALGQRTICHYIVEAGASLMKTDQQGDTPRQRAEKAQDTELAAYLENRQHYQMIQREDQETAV

Row | Compound | IC50 [1] [nM] | IC50 [2] [nM] | EC50 [5] [nM] | Emax [3, 6] [%] | EC50 ([3]; Homo sapiens, T-cell, 120 h) [nM] | Emax [4] [%] | EC50 [4] [nM] | Emax proliferation (% activation) ([3]; 5 days, normalized to reference compound A1 as stimulator control = 100%, DMSO neutral control) | EC50 [3] [nM]
1 | CC(C)(C)c1nnc(-c2cc3c(cc2F)[S+]([O-])C[C@H](N)C(=O)N3Cc2ccc(OC(F)(F)F)cc2)o1 (stereo partly drawn) [Example 62, (3R)-3-amino-7-(5-tert-butyl-1,3,4-oxadiazol-2-yl)-8-fluoro-1-oxo-5-[[14-(trifluoromethoxy)phenyl]methyl]-2,3-dihydro-1λ^4,5-benzothiazepin-4-one] | 452 | 622 | 149 |  |  | 81 | 260 | 88 | 721
2 | CC(C)(CO)c1nnc(-c2cc3c(cc2F)S(=O)(=O)C[C@H](N)C(=O)N3Cc2ccc(Cl)cc2)o1 [Example 86, (3R)-3-amino-5-[(4-chlorophenyl)methyl]-8-fluoro-7-[5-(2-hydroxy-1,1-dimethyl-ethyl)-1,3,4-oxadiazol-2-yl]-1,1-dioxo-2,3-dihydro-1λ^6,5-benzothiazepin-4-one] | 643 | 685 | 4180 | 95 | 777 | 100 | 520 |  | 
3 | COC(=O)N1CC2CC(c3nnc(-c4cc5c(cc4F)S(=O)(=O)C[C@H](N)C(=O)N5Cc4ccc(Cl)cc4)o3)(C2)C1 [Example 184, methyl 1-[5-[(3R)-3-amino-5-[(4-chlorophenyl)methyl]-8-fluoro-1,1,4-trioxo-2,3-dihydro-1λ^6,5-benzothiazepin-7-yl]-1,3,4-oxadiazol-2-yl]-3-azabicyclo[3.1.1]heptane-3-carboxylate] | 244 | 290 | 109 | 77 | 24.2 | 79 | 90 |  | 
4 | CC(C)(CO)c1nc(-c2cc3c(cc2F)S(=O)(=O)C[C@H](N)C(=O)N3Cc2ccc(Cl)cc2)no1 [Example 303, (3R)-3-amino-5-[(4-chlorophenyl)methyl]-8-fluoro-7-[5-(2-hydroxy-1,1-dimethyl-ethyl)-1,2,4-oxadiazol-3-yl]-1,1-dioxo-2,3-dihydro-1λ^6,5-benzothiazepin-4-one] | 301 | 251 | 1070 | 140 | 605 | 92 | 400 |  | 
5 | CC(N)(c1nc(-c2cc3c(cc2F)S(=O)(=O)C[C@H](N)C(=O)N3Cc2ccc(OC(F)(F)F)cc2)no1)C(F)(F)F (stereo partly drawn) [Example 331, (3R)-3-amino-7-[5-(1-amino-2,2,2-trifluoro-1-methyl-ethyl)-1,2,4-oxadiazol-3-yl]-8-fluoro-1,1-dioxo-5-[[4-(trifluoromethoxy)phenyl]methyl]-2,3-dihydro-1λ^6,5-benzothiazepin-4-one] | 857 | 176 | 74.6 | 126 | 58.4 | 116 | 30 |  | 
6 | CC(C)(C)c1nnc(-c2ccc3c(c2)N(Cc2ccc(Cl)cc2)C(=O)[C@@H](N)CS3(=O)=O)o1 [Example 361] | 876 | 933 | 525 | 100 | 361 | 100 | 560 |  | 
7 | N[C@H]1CS(=O)(=O)c2ccc(-c3nnc(C4(C5CC5)CCCO4)o3)cc2N(Cc2ccc(Cl)cc2)C1=O (stereo partly drawn) [Example 381, (3R)-3-amino-5-[(4-chlorophenyl)methyl]-7-[5-(2-cyclopropyltetrahydrofuran-2-yl)-1,3,4-oxadiazol-2-yl]-1,1-dioxo-2,3-dihydro-1λ^6,5-benzothiazepin-4-one] | 3310 | 658 | 2400 | 119 | 2420 | 101 | 160 |  | 
8 | CN1CCCC(F)(c2nnc(-c3ccc4c(c3)N(Cc3ccc(Cl)cc3)C(=O)[C@@H](N)CS4(=O)=O)o2)C1 (stereo partly drawn) [Example 384, (3R)-3-amino-5-[(4-chlorophenyl)methyl]-7-[5-(3-fluoro-1-methyl-3-piperidyl)-1,3,4-oxadiazol-2-yl]-1,1-dioxo-2,3-dihydro-1λ^6,5-benzothiazepin-4-one] | 4580 | 2250 | 792 | 112 | 698 | 110 | 990 |  | 
9 | N[C@H]1CS(=O)(=O)c2ccc(-c3nnc(N4CCOC(C(F)(F)F)C4)o3)cc2N(Cc2ccc(Cl)cc2)C1=O (stereo partly drawn) [Example 412, (3R)-3-amino-5-[(4-chlorophenyl)methyl]-1,1-dioxo-7-[5-[2-(trifluoromethyl)morpholin-4-yl]-1,3,4-oxadiazol-2-yl]-2,3-dihydro-1λ^6,5-benzothiazepin-4-one] | 2690 | 484 | 2360 | 126 | 176 | 92 | 140 |  | 
10 | N[C@H]1CS(=O)(=O)c2ccc(-c3nnc(C4(N)CCCCC4)o3)cc2N(Cc2ccc(OC(F)(F)F)cc2)C1=O [Example 417, (3R)-3-amino-7-[5-(1-aminocyclohexyl)-1,3,4-oxadiazol-2-yl]-1,1-dioxo-5-[[4-(trifluoromethoxy)phenyl]methyl]-2,3-dihydro-1λ^6,5-benzothiazepin-4-one] | 6410 | 2110 | 328 | 70 | 337 | 182 | 1860 |  | 
11 | CC(C)(C)c1nnc(-c2ccc3c(c2)N(Cc2ccc(OC4CCCC4)cc2)C(=O)[C@@H](N)CS3(=O)=O)o1 [Example 430, (3R)-3-amino-7-(5-tert-butyl-1,3,4-oxadiazol-2-yl)-5-[[4-(cyclopentoxy)phenyl]methyl]-1,1-dioxo-2,3-dihydro-1λ^6,5-benzothiazepin-4-one] | 467 | 594 | 24.2 | 110 | 97 | 96 | 60 |  | 

More lines, main results first:

Row | IC50 [1] [nM] | IC50 [2] [nM] | EC50 [5] [nM] | Compound | Emax [3, 6] [%] | EC50 ([3]; Homo sapiens, T-cell, 120 h) [nM] | Emax [4] [%] | EC50 [4] [nM] | Emax proliferation (% activation) ([3]; 5 days, normalized to reference compound A1 as stimulator control = 100%, DMSO neutral control) | EC50 [3] [nM]
12 | 210 | 254 | 36.7 | CC(C)(C)c1nnc(-c2cc3c(cc2F)S(=O)(=O)C[C@H](N)C(=O)N3Cc2ccc(OC(F)(F)F)cc2)o1 [Example 57, (3R)-3-Amino-7-(5-tert-butyl-1,3,4-oxadiazol-2-yl)-8-fluoro-1,1-dioxo-5-[[4-(trifluoromethoxy)phenyl]methyl]-2,3-dihydro-1λ^6,5-benzothiazepin-4-one] | 231 | 32.7 | 100 | 50 |  | 
13 | 54500 | 40100 | 214 | CC(C)(C)c1nnc(-c2cc3c(cc2F)S(=O)(=O)C[C@H](NC(=O)CN)C(=O)N3Cc2ccc(Cl)cc2)o1 [Example 266, 2-amino-N-[(3R)-7-(5-tert-butyl-1,3,4-oxadiazol-2-yl)-5-[(4-chlorophenyl)methyl]-8-fluoro-1,1,4-trioxo-2,3-dihydro-1λ^6,5-benzothiazepin-3-yl]acetamide] | 137 | 77.5 | 76 | 20 |  | 
14 | 5020 | 14000 | 2510 | CC1(Nc2nnc(-c3ccc4c(c3)N(Cc3ccc(Cl)cc3)C(=O)[C@@H](N)CS4(=O)=O)o2)CC(F)(F)C1 [Example 406, (3R)-3-amino-5-[(4-chlorophenyl)methyl]-7-[5-[(3,3-difluoro-1-methyl-cyclobutyl)amino]-1,3,4-oxadiazol-2-yl]-1,1-dioxo-2,3-dihydro-1λ^6,5-benzothiazepin-4-one] | 79 | 1860 | 85 | 1540 |  | 
15 | 1450 | 1680 | 369 | N[C@H]1CS(=O)(=O)c2ccc(-c3nnc(CC(F)(F)F)o3)cc2N(Cc2ccc(OC(F)(F)F)cc2)C1=O [Example 416, (3R)-3-amino-1,1-dioxo-7-[5-(2,2,2-trifluoroethyl)-1,3,4-oxadiazol-2-yl]-5-[[4-(trifluoromethoxy)phenyl]methyl]-2,3-dihydro-1λ^6,5-benzothiazepin-4-one] | 58 | 402 | 95 | 530 |  | 
16 | 625 | 632 | 508 | N[C@H]1CS(=O)(=O)c2cc(F)c(-c3nnc(NC4CCC4)o3)cc2N(Cc2ccc(Cl)cc2)C1=O [Example 459, (3R)-3-amino-5-[(4-chlorophenyl)methyl]-7-[5-(cyclobutylamino)-1,3,4-oxadiazol-2-yl]-8-fluoro-1,1-dioxo-2,3-dihydro-1λ^6,5-benzothiazepin-4-one] | 91 | 591 | 91 | 330 |  | 
